For assay [1], the target named is T1, M71 odorant receptor (Mus musculus, UniProt Q60893).
T1 sequence (Q60893 1-309): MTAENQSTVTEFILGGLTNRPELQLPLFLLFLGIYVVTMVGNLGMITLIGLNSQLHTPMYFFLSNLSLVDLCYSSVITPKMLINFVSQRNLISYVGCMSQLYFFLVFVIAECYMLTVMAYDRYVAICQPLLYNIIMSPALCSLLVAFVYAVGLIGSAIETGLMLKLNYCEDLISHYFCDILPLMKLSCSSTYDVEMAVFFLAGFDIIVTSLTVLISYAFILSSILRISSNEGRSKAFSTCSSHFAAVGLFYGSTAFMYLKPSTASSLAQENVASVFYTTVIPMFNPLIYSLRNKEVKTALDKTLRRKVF
In words: patch clamp of dendritic knobs of M71- or M71::GFP-expressing olfactory sensory neurons, dose response. Also on record: gene Or8a1; full-length M71 and M71::GFP C-terminal fusion expressed in olfactory sensory neurons. Type of assay: cell-based. (In general: In patch-clamp work, channel activity is measured electrically.)

Assay [2] concerns the target T1, M71 odorant receptor. Also on record: gene Or8a1.

As a reminder, the EC50 is the concentration that produces a half-maximal response. Higher therefore signals weaker potency. Compound `CC(=O)c1ccccc1N` [2aACP, 2-amino acetophenone] gave an EC50 on M71 odorant receptor [1] of 650 ± 80 nM.
For the compound `CCc1occc(=O)c1O` [eMLT, ethyl maltol], at M71 odorant receptor [2], the “patch clamp of dendritic knobs of olfactory sensory neurons, peak current at 10” value is recorded as “olfactory neurons expressing either M71 or M71::GFP are activated by M71 specific ligands”.
